{"source": "paper PMC12586580", "about": "(Nature Communications, 2025)", "origin": "cited, not measured here"}
{"compound": "OC[C@H]1OC(O)[C@@H](O)[C@@H](O)[C@@H]1O", "note": "(stereo partly drawn) [Man, mannose]", "values": [{"measurement": "affinity for Man", "setting": "Pmt3 MIR domain", "value": "low mM affinity"}, {"measurement": "affinity for Man", "setting": "Pmt2 MIR domain", "value": "low mM affinity"}]}
{"compound": "Ccw5: yeast cell wall protein 5 (Ccw5) (ASKTSTNATSSSCATPSLKD)", "values": [{"measurement": "Pmt4 substrate property (in words)", "setting": "Pmt4", "value": "good Pmt4 substrate"}]}
